Values after ≈ are worked out from the molar mass of the structure shown.
How the values were obtained:
IMR90 = assay: Toxicity screen against mammalian cell lines (72 h), Alamar Blue; type: cell-based
Experimental: Cell culture. IMR90 cells were obtained from ATCC. IMR90 cells were grown in EMEM with 10% fetal bovine serum (Gemini Benchmark, Cat# 100-106), 100 U/mL penicillin, and 100 μg/mL streptomycin. All cells were cultured at 37° C. in a 5% CO2 environment. Media was prepared by the Univeristy of Illinois School of Chemical Sciences Cell Media Facility. Sex and age of cell lines: IMR90 ([…]).
Cell viability. Cells seeded (IMR90: 5,000 cells/well) a 96-well plate (Greiner Bio-One, Cat# 655180) and were allowed to attach overnight. […] Raptinal (100 μM) was used as a dead control. After 24 h post-treatment, media was exchanged with compound-free media. […] Stock Alamar Blue solution [10 μL, 440 μM resazurin (Sigma-Aldrich, Cat# R7017) in sterile 1×PBS] was added to each well, and plate was incubated […]. Conversion of Alamar Blue was measured with plate reader (SpectraMax M3, Molecular Devices) by fluorescence (ex 555 nm, em 585 nm, cutoff 570 nm, autogain). Percent death was determined by normalizing to DMSO-treated cells and raptinal-treated cells.

Hep G2 = assay: Toxicity screen against mammalian cell lines (72 h); type: cell-based
K. pneumoniae BAA 2472 = assay: microbe, parasite or virus in culture; type: cell-based; settings: clinical isolate
Experimental: (§1) The compounds synthesized, shown in Table 1, were evaluated against Gram-positive and Gram-negative reference strains (S. aureus 29213 and E. coli MG1655, respectively), as well as an efflux deficient E. coli strain (ΔtolC, JW5503).
(§2) Bacterial strains. S. aureus ATCC 29213, E. coli MG1655, E. coli BAA-2340, E. coli BAA-2469, E. coli BAA-2471, E. cloacae BAA-2341, E. cloacae BAA-2468, K. pneumoniae BAA-1705, K. pneumoniae BAA-2342, K. pneumoniae BAA-2470, K. pneumoniae BAA-2472, and K. pneumoniae BAA-2473 were obtained from ATCC. E. coli JW5503 and E. coli JW3596 were obtained from the KEIO Collection. E. cloacae ATCC 29893 was provided by W. van der Donk (UIUC). E. coli AR-0346, E. coli AR-0349, E. coli AR-0493, E. coli AR-0495, and K. pneumoniae AR-0347 were obtained from the CDC and FDA AR Isolate Bank. E. coli F20987, E. coli M66623, E. cloacae S28901.1, K. pneumoniae M14723, K. pneumoniae M67198, K. pneumoniae M67297, K. pneumoniae S20595, K. pneumoniae S47889, A. baumannii W41979, A. baumannii F19521, A. baumannii M13100, and A. baumannii WO22 were obtained from the University of Illinois Chicago Medical School. A. baumannii KB304, A. baumannii KB343, and A. baumannii KB357 were provided by J. Quale.
(§3) Antimicrobial susceptibility tests. Susceptibility testing was performed in biological triplicate, using the micro-dilution broth method as outlined by the Clinical and Laboratory Standards Institute. Bacteria were cultured with cation-adjusted Muller-Hinton broth (Sigma-Aldrich, Cat# 90922) in round-bottom 96-well plates (Corning, Cat# 3788). Human serum (pooled gender, 0.2 μm filtered) was purchased from BioIVT (Hicksville, NY).

E. coli ΔtolC (JW5503) = type: cell-based; settings: efflux deficient E. coli ΔtolC
Experimental: as §1, §2, §3

E. coli MG1655 = assay: Antimicrobial susceptibility test (MIC); type: cell-based; settings: E. coli MG1655
Text: as §2, §3

S. aureus ATCC 29213 = assay: Antimicrobial susceptibility test (MIC), micro-dilution broth; type: cell-based; settings: S. aureus ATCC 29213
Text: as §2, §3

A. baumannii AR 0273 = assay: microbe, parasite or virus in culture; type: cell-based; settings: clinical isolate
Experimental: as §3

K. pneumoniae AR 0066 = assay: microbe, parasite or virus in culture; type: cell-based; settings: clinical isolate
Experimental: as §3

E. coli AR 0048 = assay: microbe, parasite or virus in culture; type: cell-based; settings: clinical isolate
Experimental: as §3

A. baumannii AR 0313 = assay: microbe, parasite or virus in culture; type: cell-based; settings: clinical isolate
Experimental: as §3

A. baumannii AR 0299 = assay: microbe, parasite or virus in culture; type: cell-based; settings: clinical isolate
Experimental: as §3

K. pneumoniae AR 0560 = assay: microbe, parasite or virus in culture; type: cell-based; settings: clinical isolate
Experimental: as §3

E. coli AR 0085 = assay: microbe, parasite or virus in culture; type: cell-based; settings: clinical isolate
Experimental: as §3

K. pneumoniae AR 0113 = assay: microbe, parasite or virus in culture; type: cell-based; settings: clinical isolate
Experimental: as §3

A. baumannii AR 0033 = assay: microbe, parasite or virus in culture; type: cell-based; settings: clinical isolate
Experimental: as §3

in vivo = settings: female, C57BL/6, mouse, in vivo, ip
Experimental: Mouse MTD of Debio-1452-NH3. The protocol was approved by the IACUC at the University of Illinois at Urbana-Champaign (Protocol Number:16144). In these studies, 10- to 12-week-old female C57BL/6 mice purchased from Charles River were used. The maximum tolerate dose (MTD) of single compound was determined first. Debio-1452 amine analogues were formulated in 20% sulfobutyl ether β-cyclodextrin in sterile water. Debio-1452-NH3 (1), and compounds 2 and 3 were given by IP injection and mice were monitored for signs of toxicity for 2 weeks (single dose). For multiple dose, the compound was given by daily IP for 5 consecutive days and mice were monitored for signs of toxicity for 1 month. MTD was the highest dosage with acceptable toxicity (e.g. <20% weight loss). Single dose MTDs were initially determined. […] The MTD of Debio-1452-NH3 (1) was used to inform the dosing schedule used in subsequent efficacy studies.

A. baumannii FabI = A. baumannii FabI (Acinetobacter baumannii, UniProt D0CAD5); assay: biochemical; settings: purified FabI, apparent inhibition constant; read-out: A. baumannii FabI Ki^app
Experimental: Mode of Action. To probe the effects of varying ring systems and amine placement on FabI target engagement, the apparent inhibition constants (Ki^app) for select compounds were determined using purified FabI. The goal of these studies was two-fold, to comparatively assess fabimycin, Debio-1452-NH3, and Debio-1452, and to also assess differential activity against the E. coli and A. baumannii versions of FabI. FabI from E. coli and A. baumannii were recombinantly expressed and purified, and the ability for each compound to inhibit the activity of these enzymes was evaluated using a standard FabI enzyme assay.
In vitro FabI inhibition assay. NADH (Sigma-Aldrich, Cat# N8129) and crotonoyl-CoA (Sigma-Aldrich, Cat# 28007) were both diluted into activity buffer [100 mM potassium glutamate (pH 7.8)], and working solution was dispensed into two columns of round-bottom 96-well plate (330 μL per well). Inhibitors, dissolved in DMSO at 200× final concentration, were added to each well via multichannel pipette (2.48 μL per well). After thorough mixing, this mixture was transferred to UV-transparent plate (UV-STAR half-area 96-well plate, Greiner Bio-One, Cat#675801, 100 μL per well, three technical replicates per inhibitor concentration). Plate was placed in plate-reader (SpectraMax 190, Molecular Devices) under temperature control (25° C.), and temperature was allowed to equilibrate. Fresh aliquot of enzyme from −80° C. was thawed on ice and diluted in activity buffer. Enzyme working solution was added to plate (50 μL per well, 20 nM enzyme final). After shaking for 5 s, reaction progress was monitored by absorbance at 340 nm every 15 s for 90 min. Linear portion of reaction progress curve was fit using plate-reader software (SoftMax Pro 7.0). Percent activity was calculated relative to DMSO-only and no-enzyme controls in each plate. Percent activity curves were fit to Morrison's quadratic using Graphpad Prism 6.0 to obtain apparent Ki.

Sequence of A. baumannii FabI (D0CAD5 1-288): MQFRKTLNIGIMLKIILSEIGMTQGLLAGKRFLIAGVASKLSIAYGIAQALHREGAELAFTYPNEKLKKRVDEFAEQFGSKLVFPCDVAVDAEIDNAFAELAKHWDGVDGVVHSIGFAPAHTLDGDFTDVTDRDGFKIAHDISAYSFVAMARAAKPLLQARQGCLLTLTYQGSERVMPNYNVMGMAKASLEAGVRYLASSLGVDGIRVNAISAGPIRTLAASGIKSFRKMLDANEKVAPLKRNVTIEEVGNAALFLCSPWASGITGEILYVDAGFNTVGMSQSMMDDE

Compound | IMR90 % Cell Death (IMR90; 30 μM) [%] | IMR90 % Cell Death (IMR90; 100 μM) [%] | Hep G2 % Cell Death (Hep G2; 30 μM) [%] | Hep G2 % Cell Death (Hep G2; 100 μM) [%] | MIC K. pneumoniae BAA 2472 (K. pneumoniae BAA 2472) [µg/mL] | MIC E. coli ΔtolC (E. coli ΔtolC (JW5503)) [µg/mL] | MIC E. coli MG1655 (E. coli MG1655) [µg/mL] | MIC S. aureus 29213 (S. aureus ATCC 29213) [µg/mL] | MIC A. baumannii AR 0273 (A. baumannii AR 0273) [µg/mL] | MIC K. pneumoniae AR 0066 (K. pneumoniae AR 0066) [µg/mL] | MIC E. coli AR 0048 (E. coli AR 0048) [µg/mL] | MIC A. baumannii AR 0313 (A. baumannii AR 0313) [µg/mL] | MIC A. baumannii AR 0299 (A. baumannii AR 0299) [µg/mL] | MIC K. pneumoniae AR 0560 (K. pneumoniae AR 0560) [µg/mL] | MIC E. coli AR 0085 (E. coli AR 0085) [µg/mL] | MIC K. pneumoniae AR 0113 (K. pneumoniae AR 0113) [µg/mL] | MIC A. baumannii AR 0033 (A. baumannii AR 0033) [µg/mL] | MTD at 2 weeks (in vivo) [mg/kg] | Ki (A. baumannii FabI) [nM]
Cc1c(CN(C)C(=O)/C=C/c2ccc3c(c2)CCC(N)C(=O)N3)oc2ccccc12 (centres unmarked) | 8 ± 3 | 67 ± 2 | 12 ± 5 | 58 ± 10 | – | – | – | – | – | – | – | – | – | – | – | – | – | – | –
Cc1c(CN(C)C(=O)C=Cc2cnc3c(c2)CC2(CC(N)C2)C(=O)N3)oc2ccccc12 (mixture of isomers) [(±)-6] | – | – | – | – | 8 | 0.062 | 4 | 0.016 | 16 | 8 | 16 | 32 | 16 | 8 | 16 | 16 | 16 | – | –
Cc1c(CN(C)C(=O)/C=C/c2cnc3c(c2)CCC(CN)C(=O)N3)oc2ccccc12 (racemic) [(±)-12] | – | – | – | – | 32 (≈ 76.5 µM) | 0.125 (≈ 0.299 µM) | 8 (≈ 19.1 µM) | 0.031 (≈ 0.0741 µM) | 32 (≈ 76.5 µM) | 32 (≈ 76.5 µM) | 16 (≈ 38.2 µM) | >32 | 32 (≈ 76.5 µM) | 16 (≈ 38.2 µM) | 8 (≈ 19.1 µM) | 32 (≈ 76.5 µM) | 16 (≈ 38.2 µM) | – | –
Cc1c(CN(C)C(=O)/C=C/c2cnc3c(c2)CC(CCN)C(=O)N3)oc2ccccc12.Cl (centres unmarked) [Compound 3, (E)-3-(6-(aminoethyl)-7-oxo-5,6,7,8-tetrahydro-1,8-naphthyridin-3-yl)-N-methyl-N-((3-methylbenzofuran-2-yl)methyl)acrylamide hydrochloride] | – | – | – | – | – | – | – | – | – | – | – | – | – | – | – | – | – | 100 | –
Cc1c(CN(C)C(=O)/C=C/c2cnc3c(c2)CC2(CNC2)C(=O)N3)oc2ccccc12 [Compound 5] | – | – | – | – | 8 (≈ 19.2 µM) | 0.031 (≈ 0.0744 µM) | 4 (≈ 9.6 µM) | 0.016 (≈ 0.0384 µM) | 8 (≈ 19.2 µM) | 8 (≈ 19.2 µM) | 8 (≈ 19.2 µM) | 16 (≈ 38.4 µM) | 16 (≈ 38.4 µM) | 16 (≈ 38.4 µM) | 4 (≈ 9.6 µM) | 16 (≈ 38.4 µM) | 8 (≈ 19.2 µM) | – | –
Cc1c(CN(C)C(=O)/C=C/c2cnc3c(c2)CC(CCNC(=O)OC(C)(C)C)C(=O)N3)oc2ccccc12 (centres unmarked) [Compound 10] | – | – | – | – | 16 (≈ 30.9 µM) | 0.031 (≈ 0.0598 µM) | 8 (≈ 15.4 µM) | 0.002 (≈ 0.00386 µM) | 8 (≈ 15.4 µM) | 32 (≈ 61.7 µM) | 8 (≈ 15.4 µM) | 16 (≈ 30.9 µM) | 8 (≈ 15.4 µM) | >32 | 8 (≈ 15.4 µM) | 32 (≈ 61.7 µM) | 16 (≈ 30.9 µM) | – | –
(R,E)-3-(7-amino-8-oxo-6,7,8,9-tetrahydro-5H-pyrido[2,3]azepin-3-yl)-N-methyl-N-((3-methylbenzofuran-2-yl)methyl)acrylamide [(R)-11] | – | – | – | – | >128 | 0.5 | 64 | 0.125 | >128 | >128 | 128 | >128 | >128 | >128 | 128 | >128 | >128 | – | 89 ± 11
